Assay results reported in patent US20230407243A1, “GENETIC PLATFORM TO INVESTIGATE THE FUNCTIONS OF BACTERIAL DRUG EFFLUX PUMPS” (priority 2022, published 2023).
≈ marks a conversion by molar mass, not a printed value.

Legend:
K-12 wcaC (pCA24N) = experiment: microbe, parasite or virus in culture; settings: Escherichia coli, 0.1 mM IPTG
Procedure: (§1) To enable comparison between efflux production in different genetic backgrounds, each efflux pump-encoding gene was also integrated into the genome of the wild-type BW25113 strain, the single gene deletion mutant from the Keio Collection, and EKO-35. Strains of interest were propagated on LB agar at 37° C. Cell inoculum was prepared using the colony resuspension method and applied to a 96-well well plate (VWR) in technical duplicate, and the minimum inhibitory concentrations were determined according to Clinical & Laboratory Standards Institute (CLSI) protocols in MHB II (Patel J. B. et al, 2015). The plates were incubated for 18 h (Multitron Shaker, Infors HT) at 37° C. with aeration at 900 rpm. The plates were equilibrated to room temperature before the OD600 nm was measured using a BioTek Synergy H1 microplate reader. For interplay profiling, blank subtracted OD600 nm values >0.1 were considered to represent growth.
(§2) To assess fitness of EKO-35 expressing wild-type copies of the genes identified to harbor nonsynonymous mutations, Inventors obtained clones from the E. coli ASKA library (Kitagawa, M. et al., 2005) with the rspA, tufA, pitA, wcaC, gyrB, and yjfC genes carried on plasmids, with gene expression under the control of an IPTG-inducible promoter. The ASKA plasmids were verified using Sanger sequencing and gene expression was induced with 0.1 mM IPTG. In the wild-type E. coli K-12 strain, the plasmids were maintained with 25 μg/mL chloramphenicol.

ΔtolC wcaC (pCA24N) = experiment: microbe, parasite or virus in culture
Procedure: as §1, §2

[1] = tested on: EKO-35-Pore expressing the P. aeruginosa pump mexCD; experiment: Checkerboard synergy (FICI), porinated strain; type: cell-based, Escherichia coli
Summary of the method: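 MHB II, CLSI microdilution checkerboard, colony-resuspension inoculum, solvent controls per plate. MIC = no growth at OD600. FICI summed from FIC of PAβN/NMP and antibiotic; <0.5 synergistic, >2.0 antagonistic.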

ΔtolC gyrB (pCA24N) = type: cell-based, Escherichia coli
K-12 gyrB (pCA24N) = experiment: MIC of strains harboring ASKA plasmids; type: cell-based; settings: Escherichia coli, 0.1 mM IPTG
[2] = EKO-35 mexCD Pore, NMP + antibiotic
[3] = EKO-35 mexCD Pore, PAβN + antibiotic
[4] = strain EKO-35 mexCD Pore, NMP + antibiotic

Compound: COc1cc(Cc2cnc(N)nc2N)cc(OC)c1OC [trimethoprim]
- MIC (K-12 wcaC (pCA24N); Chlor + (25 μg/mL)): 0.195 µg/mL
- MIC (K-12 wcaC (pCA24N); Chlor −): 1.56 µg/mL
- MIC (ΔtolC wcaC (pCA24N); Escherichia coli): 0.195 µg/mL
- MIC (ΔtolC wcaC (pCA24N); ΔtolC wcaC, Chlor +, 0.1 mM IPTG): 0.195 µg/mL

Compound: CC[C@H]1OC(=O)[C@H](C)[C@@H](O[C@H]2C[C@@](C)(OC)[C@@H](O)[C@H](C)O2)[C@H](C)[C@@H](O[C@@H]2O[C@H](C)C[C@H](N(C)C)[C@H]2O)[C@](C)(O)C[C@@H](C)C(=O)[C@H](C)[C@@H](O)[C@]1(C)O [erythromycin]
- Effect [1, 2]: Additive
- FICI [1, 2]: 0.565
- Effect [1, 3]: Synergistic
- FICI [1, 3]: 0.385
- MICb Alone ([1]; EKO-35 mexCD Pore, antibiotic alone (PAβN checkerboard)): 0.5 µg/mL
- MICb Combined ([1]; EKO-35 mexCD Pore, antibiotic in combination with PAβN): 0.13 µg/mL
- Effect [1, 4]: Additive (additive (FICI >0.5-1.0))
- FICI [1, 4]: 0.565
- MICb Alone ([1]; strain EKO-35 mexCD Pore, antibiotic alone): 2 µg/mL
- MICb Combined ([1]; strain EKO-35 mexCD Pore, antibiotic in combination with NMP): 0.13 µg/mL

Compound: CO[C@@H]1[C@@H](OC(N)=O)[C@@H](O)[C@H](Oc2ccc3c(O)c(NC(=O)c4ccc(O)c(CC=C(C)C)c4)c(=O)oc3c2C)OC1(C)C [novobiocin]
- MIC (ΔtolC gyrB (pCA24N)): 12.5 µg/mL (≈ 20.4 µM)
- MIC (K-12 gyrB (pCA24N); Chlor + (25 μg/mL)): 100 µg/mL
- MIC (K-12 gyrB (pCA24N); Chlor −): 400 µg/mL

Compound: phenylalanine-arginine-β-naphthylamide [PAβN]
- PABN MICa Alone ([1]; EKO-35 mexCD Pore, PAβN alone, one value per checkerboard): 64 µg/mL
- PABN MICa Combined ([1]; EKO-35 mexCD Pore, with Ciprofloxacin): 16 µg/mL
- PABN MICa Combined ([1]; EKO-35 mexCD Pore, with Erythromycin): 8 µg/mL
